Results taken from US12257265B2, “Cyclic dinucleotide prodrug molecule, preparation method therefor and application thereof” (SHENZHEN YING BIOPHARMACEUTICAL CO., LTD., priority 2019, dated 2025).
Like-named read-outs stand apart in the source and are kept apart here.

Experiments:
CT-26-Luc cells = experiment: Anticancer activity assay in CT-26 mouse tumor model; assay type: in vivo, mice; details: 1 mg/kg intratumoral injection, once every two days, three times, FIG. 4 and FIG. 5
Procedure: Anticancer Activity Assay of the Compound 8
Mice: BABL/C female mice, weight 18 g to 22 g. The source is the animal experiment center in Guangdong province, and the mice are fed with pellet feed and freely eat and drink water.
Tumor Cell Lines: CT-26-Luc Cells […]
The administration method includes the following steps: the administration was started at the 10th day after tumor inoculation growth, and 50 microliters/mouse was administered once every two days for a total of three times by intratumoral injection. The growth of tumors in mice was detected by chemiluminescence using the IVIS Spectrum Imaging System. […] After imaging, fluorescence values were converted to photon numbers and the total number of fluorescence photons for each experimental group was counted. […] In which the numbers in FIG. 4a, FIG. 4b, FIG. 4c, FIG. 4d, FIG. 4e and FIG. 4f represent the total number of fluorescence photons in the circular region (ROI, region of interest), and FIG. 4g and FIG. 4h are statistical graphs of the total number of fluorescence photons for each experimental group, respectively. […]

[1] = tested on: type I interferon expression in THP-1 cells; details: reference compound 2′3′-RR-(AXA) in patent CN108430503A; read-out: EC50 value of the control drug; cited from earlier work
[2] = Determination of the oil-water partition coefficient log P (n-octanol/water, HPLC); assay type: physicochemical; details: pH 7; n-octanol / purified water (10 mM K2HPO4 pH7.0), HPLC peak area ratio, three repeats
Procedure: Determination of the Oil-Water Partition Coefficient Log P of the Two Cyclic Dinucleotide Prodrug Molecules.
1) Preparing the compound solution: a certain amount of the compound 8, the compound 16 and the compound cddA35 were weighed and dissolved in DMSO solutions respectively to prepare mother solutions with a concentration of 1 mg/mL. 2) 20 μL of the prepared mother liquor was added to an EP tube containing a mixture of 1 mL of n-octanol and 1 mL of purified water (10 mM K2HPO4 pH7.0), vortexed for 2 h with shaking, and allowed to stand overnight at 4° C. for phase separation, and 400 μL of solution from each phase was separated. Centrifuging at 3000 rpm for 5 min, filtering with corresponding […] filter membrane, measuring the two-phase absorption peak area under the same HPLC parameter condition, repeating the experiment for three times, and calculating log value of the peak area ratio of n-octyl alcohol phase and water phase to obtain the log P value of the target compound, as shown in Table 2.
HPLC conditions: the instrument used by an Agilent 1260 HPLC, column: Agilent ZORABX SB-C185 μm [4.6×150 mm], column temperature 25° C., sample injection 10 μL, detection wavelength was […], chromatographic gradient method as shown in Table 1 below.

[3] = tested on: type I interferon expression in THP-1 cells; experiment: Type I interferon activity assay in monocytic cell line THP-1 (THP-1-Lucia) cells; assay type: cell-based; details: for EC50: Homo sapiens, THP-1, dose-response curves, serial dilutions, FIG. 3, read-out: EC50 causing type I interferon expression in THP-1 cell line
Procedure: Activity Assay of Two Cyclic Dinucleotide Prodrug Molecules in Monocytic Cell Line THP-1 Cells
The THP-1-Lucia cells confluency reached about 80%, and the compound 8, the compound 16 and the drug ADU-S100 are directly dissolved into a culture medium according to a certain concentration and added into a 24-well plate, wherein four wells are parallel. The cells were maintained under the culture condition of 37° C. and 5% CO2 for 24 h. After the end of the culture, luciferase activity was measured. Wherein, the test results of the type I interferon of the compound 8, the compound 16 and the drug ADU-S100 in the monocyte cell line THP-1 under the action concentration of 10 μM are shown in FIG. 2; EC50 values for the compound 8 and the compound 16 to cause type I interferon expression in THP-1 cell lines were then determined by dose-response curves for serial dilutions at various concentrations, as shown in FIG. 3.

STING = experiment: Dual-fluorescence reporter gene activity assay in HEK293T cells (hSTING-wt, IFNβ promoter luciferase); assay type: cell-based, human; details: 5 μM, without any transfection reagent, 24 h, FIG. 1
Procedure: Activity assay of two cyclic dinucleotide prodrug molecules in HEK293T cells
The principle is as follows: dual-fluorescence reporter gene experiments: After entering a cell, the cyclic dinucleotide prodrug molecule passes through thioesterase in the cytoplasm of the cell or a reducing environment, so that thioester bond breakage or disulfide bond breakage is carried out, then an intermediate is obtained, a sulfur atom at a p position can nucleophilically attack a carbon atom at the a position, cyclic thioethane is removed, cyclic dinucleotides with a phosphodiester structure of a parent drug with negative charges are released, the intracellular STING protein is combined and activated, interferon regulatory factor 3 (IRF3) is phosphorylated, phosphorylated IRF3 enters into the nucleus and combined with the promoter region of a interferon-β gene to cause the expression of interferon, and based on these, the interferon gene promoter is introduced into a promoter of firefly luciferase, so that the cell activity of the prodrug molecule can be measured by using a dual-fluorescence reporter gene method.
(1) preparing the compound solution: the compound 8 and the compound 16 were dissolved in DMSO, respectively, to obtain a final concentration of 1 mM. cddA35 was dissolved in water and similarly prepared at a concentration of 1 mM. […]

Row | logP [2] | EC50 [3] | SMILES | growth of the tumor in the mice (CT-26-Luc cells) | EC50 [1] | dual-fluorescence result: crossing cell membranes and activating STING pathway / expression of interferon (STING) | expression of type I interferon in THP-1 cell line ([3]; action concentration of 10 μM, without any transfection reagent, 24 h, FIG. 2, activity much higher than ADU-S100)
1 | – | – | Nc1ncnc2c1ncn2[C@@H]1O[C@@H]2COP(=O)([S-])O[C@@H]3[C@H](O)[C@@H](COP([O-])(=S)O[C@H]2[C@H]1O)O[C@H]3n1cnc2c(N)ncnc21.[Na+].[Na+] (stereo partly shown) [ADU-S100] | only controlled | 41500 nM | – | –
2 | 1.93 | 4.4 nM | CC(C)(C)C(=O)SCCOP1(=O)OC[C@H]2O[C@@H](n3cnc4c(N)ncnc43)C[C@H]2OP(=O)(OCCSC(=O)C(C)(C)C)OC[C@H]2O[C@@H](n3cnc4c(N)ncnc43)CC2O1 (stereo partly shown) [Compound 8] | – | – | – | –
3 | 0.85 | 355 nM | Nc1ncnc2c1ncn2[C@H]1CC2OP(=O)(OCCSSc3ccccn3)OC[C@H]3O[C@@H](n4cnc5c(N)ncnc54)CC3OP(=O)(OCCSSc3ccccn3)OC[C@H]2O1 (stereo partly shown) [Compound 16] | – | – | can autonomously cross cell membranes without any transfection reagent | strong expression of type I interferon
4 | -3.43 | – | Nc1ncnc2c1ncn2[C@H]1CC2OP(=O)(O)OC[C@H]3O[C@@H](n4cnc5c(N)ncnc54)CC3OP(=O)(O)OC[C@H]2O1 (stereo partly shown) [cddA35, reference compound] | – | – | hardly crosses cell membranes | –
